Consider seven compounds from patent US20230094545A1, “S1P RECEPTOR MODULATORS” (AKAAL PHARMA PTY LTD, priority 2020, published 2023).

For orientation: log P means a log measure of how a compound divides between an organic and an aqueous phase. Broadly, the EC50 is the concentration giving half of the maximal effect.

The target of data set [1] is T1, S1P1 receptor (Homo sapiens, UniProt P21453). Conditions: cited from earlier work; for activity v/s degradation margin: known S1P receptor modulators; for receptor degradation ability: Lucas et al.
Data set [2] can be described thus: Solubility in water / precipitation in buffer. The format is physicochemical. How it is done:
To solubilize the free base in water the novel technology AvignaSOL (N,N-Dimethyl hexanamide; patent number: U.S. Pat. No. 9,186,338B2) and its higher derivatives such as octinamide, decamide which improve the absorption of various poorly soluble drugs was used. AvignaSOL as 1-70% ww % assisted the solubilization of free base as 1 gm/20 mL of water. The solubility of free base in water assisted its direct use in various formulation such as creams, gels, solutions which together with the permeation enhancing effect will be harnessed to improve skin penetration and/or bioavailability and in altering the pharmacokinetics and pharmacodynamics profile of free base.
The AvignaSOL having a log P of ˜1.6 hinder the release by increasing the hydrophobicity of the delivery system. […] The combination of compound of formula I with other ingredients including sustained release enhancer with or without AvignaSOL were prepared as novel formulation techniques to improve and/or alter the pharmacokinetics and pharmacodynamics profile of compound of Formula I.

The test system of a further data set is EAE. The data set can be described thus: Animal model of multiple sclerosis (EAE induced with guinea pig MBP). Conditions: EAE rats, oral every day until day 26. The class given is in vivo, Lewis rats. Here is the method:
The oral treatment with a compound of formula (I) was conducted in an animal model of multiple sclerosis. EAE was induced in female Lewis rats with guinea pig MBP (25 μg/rat).

The conditions of data set [3]: cited from earlier work.
For data set [4] the following is noted: single dose, 2 mg or lower doses; cited from earlier work.
Data set [5] deals with T1, S1P1 receptor. Conditions: Lucas et al; read-out: EC50 at S1P1 receptor in a GTPγS assay; cited from earlier work.

T1 sequence (P21453 whole entry): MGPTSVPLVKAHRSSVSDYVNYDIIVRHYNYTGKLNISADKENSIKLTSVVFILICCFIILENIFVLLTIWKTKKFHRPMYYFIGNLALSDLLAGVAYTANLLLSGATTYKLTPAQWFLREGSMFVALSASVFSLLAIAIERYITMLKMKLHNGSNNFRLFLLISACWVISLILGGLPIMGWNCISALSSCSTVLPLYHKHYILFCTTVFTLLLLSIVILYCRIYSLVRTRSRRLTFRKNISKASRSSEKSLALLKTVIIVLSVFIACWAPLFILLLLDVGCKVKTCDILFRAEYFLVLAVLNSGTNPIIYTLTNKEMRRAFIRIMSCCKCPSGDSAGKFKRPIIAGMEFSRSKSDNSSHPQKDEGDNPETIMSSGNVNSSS

Turning to `CCc1cc(/C(C)=N/OCc2ccc(C3CCCCC3)c(C(F)(F)F)c2)ccc1CN1CC(C(=O)O)C1` [BAF-312], the “activity v/s degradation margin” value on S1P1 receptor [1] is 2.95.

With `CCC/N=C1\S/C(=C\c2ccc(OC[C@H](O)CO)c(Cl)c2)C(=O)N1c1ccccc1C` [Ponesimod], the “activity v/s degradation margin” value at S1P1 receptor [1] is recorded as less than 2.

On to `CCCOc1ccc(-c2nc(-c3ccc4oc(C(N)(CO)CO)cc4c3)no2)cc1Cl` [compound of formula I free base], for which the solubility in water entry in data set [2] was “insoluble in water”.

Take `CCCCCCCCc1ccc(CCC(N)(CO)CO)cc1` [FTY720]: at S1P1 receptor [1], the receptor degradation ability is recorded as 0.34 nM and the “activity v/s degradation margin” value was 0.17. Moreover, the lymphopenia entry in the data set on EAE is on record as “induced at a high level over a long-term period”.

On to `CCCCCC(=O)N(C)C` [AvignaSOL, N,N-Dimethyl hexanamide], for which, in data set [3], the “log P” value is reported as approximately 1.6.

On to `CC(C)Oc1ncc(-c2nc(-c3cccc4c3ccn4CCCC(=O)O)no2)cc1Cl` [GSK2018682], for which, in data set [4], the lymphopenia entry is “minimal or no lymphopenia” and the “reduction in heart rate” value is recorded as not below 10 beats.

Turning to `CCCCCCCCCCCCC/C=C/[C@@H](O)[C@@H](N)COP(=O)(O)O` [S1P], at S1P1 receptor [1], the receptor degradation ability was 302 nM. Besides, on S1P1 receptor [5], the EC50 is 1.2 nM.
